These results are taken from patent US20110118347A1, “TREATMENT Of RINGWORM” (Vernolix Limited, priority 2008, published 2011).

SMILES strings stand for the structures.

Series [1] in a line: Penetration of compounds of Formula I into mammalian skin (living pig skin). Conditions: 5% by wt in lanolin-based cream, applied to outer surface of living pig skin, after one hour. The series is classed as in vitro ADME. The text has this:
The formulation may be applied to the outer surface of a section of living pig skin.

The test system of series [2] is T. tonsurans. Nature of the series: Screen for activity against fungal lawns of T. tonsurans. It is filed as cell-based, Trichophyton tonsurans.

As for `CCCCCC(O)C(O)CC=CCCCCCCCC(=O)O` (centres unmarked) [Compound (iv), 12,13-dihydroxyoctadec-9-enoic acid], the “penetration of the active compounds into the dermis and epidermis” value in series [1] was “a significant amount of compounds (i) and (iv) has penetrated the dermis”. Moreover, the “fungicidal activity against fungal lawns of T. tonsurans” value in series [2] is recorded as “effective fungicidal activity”.
